The nature of data set [1]: Clarity (solubility) of mixtures of fluoroalkyloxy alkane with silicone oil 5,000 cS. On the set-up: key: ++: the mixture is clear after stirring at room temperature; +: the mixture is opalescent after stirring at room temperature, it becomes clear after heating at 37° C. In kind it is physicochemical. The method, then:
Various mixtures comprising a fluoroalkyloxy alkane obtained according to Examples 1, 3 and 4 and a silicone oil having a viscosity of 5,000 cS (at 20° C.) were prepared.
Table 4 contains the amounts of fluoroalkyloxy alkane in the various mixtures (expressed as weight % on the total weight of the mixture), and the result in terms of clarity of the solution at different temperatures.

Data set [2] in a line: Clarity (solubility) of mixtures of fluoroalkyloxy alkane with silicone oil 1,000 cS. On the set-up: key: ++: the mixture is clear after stirring at room temperature; +: the mixture is opalescent after stirring at room temperature, it becomes clear after heating at 37° C. In kind it is physicochemical. The method, then: Various mixtures comprising a fluoroalkyloxy alkane obtained according to Examples 1, 3 and 4 and a silicone oil having a viscosity of 1,000 cS (at 20° C.) were prepared.
Table 3 contains the amounts of fluoroalkyloxy alkane in the various mixtures (expressed as weight % on the total weight of the mixture), and the result in terms of clarity of the solution at different temperatures.

[3] abbreviates: 33% by weight fluoroalkyloxy alkane in silicone oil 5,000 cS (at 20° C.).
Setting [4] is: 43% by weight fluoroalkyloxy alkane in silicone oil 5,000 cS (at 20° C.).
Setting [5] is: 50% by weight fluoroalkyloxy alkane in silicone oil 5,000 cS (at 20° C.).
[6] abbreviates: 60% by weight fluoroalkyloxy alkane in silicone oil 5,000 cS (at 20° C.).
The mark [7] stands for this setting: 90% by weight fluoroalkyloxy alkane in silicone oil 5,000 cS (at 20° C.).
Setting [8] is: 33% by weight fluoroalkyloxy alkane in silicone oil 1,000 cS (at 20° C.).
The mark [9] stands for this setting: 43% by weight fluoroalkyloxy alkane in silicone oil 1,000 cS (at 20° C.).
Where [10] appears, read: 50% by weight fluoroalkyloxy alkane in silicone oil 1,000 cS (at 20° C.).
[11] abbreviates: 60% by weight fluoroalkyloxy alkane in silicone oil 1,000 cS (at 20° C.).
Where [12] appears, read: 90% by weight fluoroalkyloxy alkane in silicone oil 1,000 cS (at 20° C.).

For `CCCCCOCCC(F)(F)C(F)(F)C(F)(F)C(F)(F)F` [CF3(CF2)3CH2CH2O(CH2)4CH3], the “clarity of the solution” value in data set [1] (setting [3]), in data set [1] (setting [4]), in data set [1] (setting [5]), in data set [1] (setting [6]), in data set [1] (setting [7]) and in data set [2] (setting [8]) was “++” throughout. In addition, the “clarity of the solution” value in data set [2] (setting [9]), in data set [2] (setting [10]), in data set [2] (setting [11]) and in data set [2] (setting [12]) was “++” throughout.

Take `CCCOCCC(F)(F)C(F)(F)C(F)(F)C(F)(F)F` [CF3(CF2)3CH2CH2O(CH2)2CH3]: the “clarity of the solution” value in data set [1] (setting [3]), in data set [1] (setting [4]), in data set [1] (setting [5]), in data set [1] (setting [6]), in data set [1] (setting [7]) and in data set [2] (setting [8]) was “++” throughout. The “clarity of the solution” value in data set [2] (setting [9]), in data set [2] (setting [10]), in data set [2] (setting [11]) and in data set [2] (setting [12]) was “++” each time.

For `CCCCCOCCC(F)(F)C(F)(F)C(F)(F)C(F)(F)C(F)(F)C(F)(F)F` [CF3(CF2)5CH2CH2O(CH2)4CH3], the “clarity of the solution” value in data set [1] (20% by weight fluoroalkyloxy alkane in silicone oil 5,000 cS (at 20° C.)) is listed as “++”; in data set [1] (setting [3]) it was “++”; in data set [1] (setting [4]), “+”; in data set [1] (setting [5]) it was “+”; in data set [2] (20% by weight fluoroalkyloxy alkane in silicone oil 1,000 cS (at 20° C.)), “++”; in data set [2] (setting [8]), “++”. The “clarity of the solution” value in data set [2] (setting [9]) and in data set [2] (setting [10]) was “+” in each case.

The values above are taken from patent US20110034414A1, “FLUOROALKYLOXY ALKANES, PROCESS FOR PRODUCTION AND USES THEREOF” (AL.CHI.MI.A. S.R.L., priority 2008, published 2011).
